Assay results published in patent US6545182B2, “Methods and compositions for modulating alpha adrenergic receptor activity” (Allergan Sales, Inc., priority 2000, dated 2003).

Tests used:
Format in all cases: cell-based
[1] = target: T1, alpha 2A adrenergic receptor (Homo sapiens, UniProt P08913); assay: RSAT (Receptor Selection and Amplification Technology) assay, alpha 2A; details: for EC50: NIH-3T3 cells cotransfected with receptor and Gq/i5; for efficacy or intrinsic activity (value in parentheses) Alpha 2A: ratio of maximal effect to that of standard full agonist brimonidine
T1 construct: expressed in transfected cells; host or cells: NIH-3T3 cells, transient cotransfection by calcium phosphate
T1 sequence (P08913 1-465): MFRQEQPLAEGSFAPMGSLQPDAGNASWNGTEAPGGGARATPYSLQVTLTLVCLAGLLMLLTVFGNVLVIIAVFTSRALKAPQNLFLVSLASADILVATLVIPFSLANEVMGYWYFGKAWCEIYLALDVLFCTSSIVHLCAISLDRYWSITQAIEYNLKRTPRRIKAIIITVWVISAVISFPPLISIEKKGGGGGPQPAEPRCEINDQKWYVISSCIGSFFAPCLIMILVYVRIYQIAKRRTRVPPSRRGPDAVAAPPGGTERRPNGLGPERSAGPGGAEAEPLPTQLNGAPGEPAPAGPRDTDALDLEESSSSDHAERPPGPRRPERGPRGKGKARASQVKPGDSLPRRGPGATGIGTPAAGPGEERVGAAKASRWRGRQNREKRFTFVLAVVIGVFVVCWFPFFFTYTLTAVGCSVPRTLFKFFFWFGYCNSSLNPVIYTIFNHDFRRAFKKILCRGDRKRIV
Procedure: (§1) Activity was measured using the RSAT (Receptor Selection and Amplification Technology) assay, developed by Receptor Technologies, Inc. of Winooski, Vt. (now Acadia Pharmaceuticals of San Diego, Calif.), adapted for use with recombinant alpha2 adrenergic receptors in collaboration with Allergan. The assay measures receptor-mediated loss of contact inhibition that results in selective proliferation of receptor-containing cells in a mixed population of confluent cells. The increase in cell number is assessed with an appropriate transfected marker gene such as β-galactosidase, the activity of which can be easily measured in a 96-well format. Receptors that activate the G protein, Gq, elicit this response. Alpha2 receptors, which normally couple to Gi, activate the RSAT response when coexpressed with a hybrid Gq protein that has a Gi receptor recognition domain, called Gq/i5.
(§2) The assay is conducted as follows. NIH-3T3 cells are plated at a density of 2×10^6 cells in 15 cm dishes and maintained in Dulbecco's modified Eagle's medium supplemented with 10% calf serum. One day later, cells are cotransfected by calcium phosphate precipitation with mammalian expression plasmids encoding p-SV-β-galactosidase (5-10 μg), receptor (1-2 μg) and G protein (1-2 μg). 40 μg salmon sperm DNA may also be included in the transfection mixture to increase transfection efficiency. Fresh media is added on the following day and 1-2 days later, cells are harvested and frozen in 50 assay aliquots. Transfectant cells are thawed and 100 μl added to 100 μl aliquots of various concentrations of drugs in triplicate in 96-well dishes. Incubations continue 72-96 hr at 37°. After washing with phosphate-buffered saline, β-galactosidase enzyme activity is determined by adding 200 μl of the chromogenic substrate (consisting of 3.5 mM o-nitrophenyl-β-D-galactopyranoside and 0.5% of the non-ionic surfactant nonidet P-40 in phosphate buffered saline), incubating overnight at 30° and measuring optical density at 420 nm. The absorbency is a measure of enzyme activity, which depends on cell number and reflects a receptor-mediated cell proliferation. The EC50 and maximal effect of each drug at each alpha2 receptor is determined. The efficacy or intrinsic activity is calculated as a ratio of the maximal effect of the drug to the maximal effect of a standard full agonist for each receptor subtype. Brimonidine, also called UK14304, is used as the standard agonist for the alpha2A, alpha2B and alpha2C receptors. The RSAT assay is also discussed in Messier et al. (1995) High throughput assays of cloned adrenergic, muscarinic, neurokinin and neurotrophin receptors in living mammalian cells, Pharmacol. Toxicol. 76:308-11; see also Conklin et al. (1993) Substitution of three amino acids switches receptor specificity of Gqα to that of Giα, Nature 363:274-6; Both of these papers are incorporated by reference herein.

[2] = target: T2, alpha 2B adrenergic receptor (Homo sapiens, UniProt P18089); assay: RSAT (Receptor Selection and Amplification Technology) assay, alpha 2B; details: for EC50: NIH-3T3 cells cotransfected with receptor and Gq/i5; for efficacy or intrinsic activity (value in parentheses) Alpha 2B: ratio of maximal effect to that of standard full agonist brimonidine
T2 construct: expressed in transfected cells; host or cells: NIH-3T3 cells, transient cotransfection by calcium phosphate
T2 sequence (P18089 1-450): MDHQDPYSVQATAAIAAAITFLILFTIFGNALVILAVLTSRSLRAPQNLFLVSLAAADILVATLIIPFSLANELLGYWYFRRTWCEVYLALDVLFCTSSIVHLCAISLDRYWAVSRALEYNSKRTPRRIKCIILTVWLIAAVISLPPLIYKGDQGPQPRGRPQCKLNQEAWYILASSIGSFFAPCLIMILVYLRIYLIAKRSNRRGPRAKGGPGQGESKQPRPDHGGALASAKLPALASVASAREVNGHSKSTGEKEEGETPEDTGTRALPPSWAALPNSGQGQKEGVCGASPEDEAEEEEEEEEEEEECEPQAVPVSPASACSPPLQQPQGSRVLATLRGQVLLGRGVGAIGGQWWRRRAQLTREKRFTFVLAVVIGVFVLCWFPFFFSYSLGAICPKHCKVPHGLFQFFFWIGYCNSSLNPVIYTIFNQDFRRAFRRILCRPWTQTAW
Procedure: as §1, §2

[3] = target: T3, alpha 2C adrenergic receptor (Homo sapiens, UniProt P18825); assay: RSAT (Receptor Selection and Amplification Technology) assay, alpha 2C; details: for EC50: NIH-3T3 cells cotransfected with receptor and Gq/i5; for efficacy or intrinsic activity (value in parentheses) Alpha 2C: ratio of maximal effect to that of standard full agonist brimonidine
T3 construct: expressed in transfected cells; host or cells: NIH-3T3 cells, transient cotransfection by calcium phosphate
T3 sequence (P18825 1-462): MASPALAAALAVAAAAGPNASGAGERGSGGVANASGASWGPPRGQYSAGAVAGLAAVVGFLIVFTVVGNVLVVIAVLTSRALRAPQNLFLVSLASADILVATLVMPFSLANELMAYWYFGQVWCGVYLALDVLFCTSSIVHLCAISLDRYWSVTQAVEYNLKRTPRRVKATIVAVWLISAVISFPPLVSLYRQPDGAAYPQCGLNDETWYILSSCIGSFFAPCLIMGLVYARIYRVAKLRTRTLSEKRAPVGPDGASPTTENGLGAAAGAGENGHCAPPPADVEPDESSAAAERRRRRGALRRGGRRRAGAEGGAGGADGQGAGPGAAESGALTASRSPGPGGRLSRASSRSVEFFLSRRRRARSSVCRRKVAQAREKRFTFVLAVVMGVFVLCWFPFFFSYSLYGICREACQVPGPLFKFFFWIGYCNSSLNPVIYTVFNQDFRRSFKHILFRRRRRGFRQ
Procedure: as §1, §2

SMILES	EC50 [1] [nM]	EC50 [2] [nM]	efficacy or intrinsic activity (value in parentheses) Alpha 2B [2]	EC50 [3] [nM]	efficacy or intrinsic activity (value in parentheses) Alpha 2C [3]	efficacy or intrinsic activity (value in parentheses) Alpha 2A [1]
Cc1cc(CNC(=S)NCCO)c(F)c(F)c1F	≥ 210000	120	0.92	≥ 210000	–	–
COc1cccc(CNC(=S)NCCO)c1F	> 2000	429	1.04	> 3000	–	–
OCCNC(=S)NCc1ccccc1C(F)(F)F	≥ 210000	694	0.93	783	0.4	–
OCCNC(=S)NCc1cc(F)ccc1Br	≥ 210000	20	1.0	137	0.63	–
OCCNC(=S)NCc1c(Br)ccc(F)c1F	≥ 210000	48	0.60	≥ 210000	–	–
OCCNC(=S)NCc1c(F)ccc(Cl)c1F	≥ 210000	98	0.83	> 2000	–	–
Cc1cc(Cl)c(F)c(CNC(=S)NCCO)c1	546	62	1.06	278	0.66	0.31
OCCNC(=S)NCc1cccc(Br)c1F	136	5.5	1.03	41	0.88	0.52
Cc1cc(Br)c(F)c(CNC(=S)NCCO)c1	> 2000	22	0.73	819	0.56	–
OCCNC(=S)NCc1cccc(Br)c1	295	14	0.9	≥ 210000	–	0.3
OCCNC(=S)NCc1c(F)ccc(Cl)c1Cl	≥ 210000	30	0.75	238	0.34	–
OCCNC(=S)NCc1cccc(C(F)(F)F)c1Cl	≥ 210000	33	1.1	–	–	–
OCCNC(=S)NCc1cccc(C(F)(F)F)c1	≥ 210000	495	0.73	≥ 210000	–	–
OCCNC(=S)NCc1cccc(C(F)(F)F)c1F	≥ 210000	37	0.7	632	0.3	–
OCCNC(=S)NCc1c(F)cccc1F	≥ 210000	462	0.45	5060	0.4	–
OCCNC(=S)NCc1cccc(Cl)c1Cl	≥ 210000	3	0.99	54.5	0.33	–
OCCNC(=S)NCc1c(Br)ccc(I)c1F	≥ 210000	70	0.49	≥ 210000	–	–
OCCNC(=S)NCc1c(F)cccc1C(F)(F)F	≥ 210000	137	0.68	617	0.37	–
OCCNC(=S)NCc1cc(Cl)ccc1Br	≥ 210000	25	0.82	–	–	–
OCCNC(=S)NCc1cc(F)c(F)cc1F	≥ 210000	271	0.48	–	–	–
OCCNC(=S)NCc1cc(Cl)cc(Cl)c1F	≥ 210000	118	0.92	–	–	–
OCCNC(=S)NCc1c(F)ccc(Br)c1F	≥ 210000	205	0.81	–	–	–
Cc1ccc(F)c(CNC(=S)NCCO)c1	≥ 210000	95	0.91	–	–	–
COc1ccc(F)c(CNC(=S)NCCO)c1	≥ 210000	282	0.91	–	–	–
OCCNC(=S)NCc1cc(Br)ccc1Cl	≥ 210000	50	0.78	–	–	–
